Results reported in patent publication US11986471B2, “Compounds and methods of use” (Tango Therapeutics, Inc., priority 2018, dated 2024).

Tests used:
PRMT5 [1] = target: T1, PRMT5 (Homo sapiens, UniProt O14744); test: PRMT5 IC50 assay in the presence of SAM as cofactor; format: biochemical
T1 construct: purchased Viva (custom protein)
In short: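 MTA-dependent versus SAM-dependent inhibition of human PRMT5 was assessed by IC50; conversion factors of 13.5 and 1.5 gave the corresponding Ki.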

PRMT5 [2] = target: T1, PRMT5; test: PRMT5 IC50 assay with no cofactor; format: biochemical
In short: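 IC50 against PRMT5 determined with SAM as cofactor, with no cofactor, and with MTA as cofactor. Ki derived as IC50/1.5 for the SAM assay and IC50/13.5 for the MTA assay; SAM Ki to MTA Ki ratio also reported.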

PRMT5 [3] = target: T1, PRMT5; test: PRMT5 IC50 assay in the presence of MTA as cofactor; format: biochemical; conditions: for IC50: PRMT5, MTA as cofactor
In short: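 Three cofactor conditions tested for PRMT5 inhibition: none, MTA and SAM, each giving an IC50. For conversion to Ki, the MTA-condition IC50 is divided by 13.5 and the SAM-condition IC50 by 1.5, and the two Ki values are expressed as a SAM/MTA ratio.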

HAP1 MTAP-intact = test: SDMA in-cell western assay, HAP1 MTAP-intact cell line; format: cell-based; conditions: Homo sapiens
In short: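 Using an MTAP-isogenic HAP1 cell pair, inhibition of SDMA formation is read by in-cell western and expressed as IC50. MTAP-selectivity is assigned where the ratio between lines reaches 3 fold or greater.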

HAP1 MTAP-deleted = test: SDMA in-cell western assay, HAP1 MTAP-deleted cell line; format: cell-based; conditions: for IC50: Homo sapiens, HAP1 MTAP-deleted cell line; for MTAP Intact/Deleted Ratio: IC50 ratio HAP1 MTAP-intact / HAP1 MTAP-deleted
In short: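 In-cell western for SDMA marks; MTAP-deleted (null) HAP1 background; values given as IC50.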

[4] = ratio between the Ki in the presence of SAM and the Ki in the presence of MTA
[5] = ratio between Ki in the presence of SAM and Ki in the presence of MTA

T1 sequence (O14744 whole entry): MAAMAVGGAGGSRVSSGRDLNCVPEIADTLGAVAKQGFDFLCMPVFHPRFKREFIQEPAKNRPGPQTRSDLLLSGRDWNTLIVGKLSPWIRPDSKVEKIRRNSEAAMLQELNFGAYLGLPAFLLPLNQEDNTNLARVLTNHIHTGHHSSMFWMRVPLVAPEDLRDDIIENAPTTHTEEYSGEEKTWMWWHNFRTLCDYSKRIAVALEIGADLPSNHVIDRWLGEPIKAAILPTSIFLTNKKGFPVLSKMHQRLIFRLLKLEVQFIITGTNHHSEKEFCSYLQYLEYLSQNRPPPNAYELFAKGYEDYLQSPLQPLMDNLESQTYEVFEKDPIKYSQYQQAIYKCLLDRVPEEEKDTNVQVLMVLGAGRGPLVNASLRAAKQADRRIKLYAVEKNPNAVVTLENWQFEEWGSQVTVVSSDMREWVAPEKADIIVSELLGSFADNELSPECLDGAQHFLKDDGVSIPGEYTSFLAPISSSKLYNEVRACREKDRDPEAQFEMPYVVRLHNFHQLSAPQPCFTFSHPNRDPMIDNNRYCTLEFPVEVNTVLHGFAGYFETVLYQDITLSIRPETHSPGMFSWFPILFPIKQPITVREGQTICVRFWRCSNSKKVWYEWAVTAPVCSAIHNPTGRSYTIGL
T1 sequence (Q9BQA1 whole entry partner): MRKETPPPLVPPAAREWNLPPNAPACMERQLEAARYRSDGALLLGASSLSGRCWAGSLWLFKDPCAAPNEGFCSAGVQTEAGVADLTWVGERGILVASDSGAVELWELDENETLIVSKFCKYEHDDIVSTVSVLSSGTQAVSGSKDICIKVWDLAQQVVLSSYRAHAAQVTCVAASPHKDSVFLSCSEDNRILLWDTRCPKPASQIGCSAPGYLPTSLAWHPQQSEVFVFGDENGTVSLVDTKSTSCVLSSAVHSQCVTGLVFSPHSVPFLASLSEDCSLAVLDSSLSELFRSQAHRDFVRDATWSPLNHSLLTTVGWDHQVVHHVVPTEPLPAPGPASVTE

| Structure (SMILES) | IC50 (PRMT5 [1]) | IC50 (PRMT5 [2]) | IC50 (PRMT5 [3]) | IC50 (HAP1 MTAP-intact) | IC50 (HAP1 MTAP-deleted) | IC50 (PRMT5 [2]; read-out: No Co-factor IC50) | SAM/MTA Ratio (PRMT5 [3]; [4]) | MTAP Intact/Deleted Ratio (HAP1 MTAP-deleted) | SAM/MTA Ratio (PRMT5 [3]; [5]) |
| --- | --- | --- | --- | --- | --- | --- | --- | --- | --- |
| COCCN(C)c1cc(C(=O)NC[C@H](O)CN2CCc3cc(OCc4cnco4)ccc3C2)cc(NC2CCC2)n1 [Compound 369, (S)-2-(cyclobutylamino)-N-(2-hydroxy-3-(6-(oxazol-5-ylmethoxy)-3,4-dihydroisoquinolin-2(1H)-yl)propyl)-6-((2-methoxyethyl)(methyl)amino)isonicotinamide] | 500 to 5000 nM |  | 50 to 500 nM | 1000 to 10000 nM | ≥ 10000 nM | 500 to 5000 nM |  | C* (an IC50 ratio of less than 3 fold between the IC50 in the HAP1 MTAP-intact cell line and the HAP1 MTAP-deleted cell line) | A (a Ki ratio greater than or equal to 10 fold between the Ki in the presence of SAM and the Ki in the presence of MTA) |
| Cc1ncoc1COc1ccc2c(c1)CCN(C[C@@H](O)CNC(=O)c1cccc(NC3CCC3)c1)C2 [Compound 283, (S)-3-(cyclobutylamino)-N-(2-hydroxy-3-(6-((4-methyloxazol-5-yl)methoxy)-3,4-dihydroisoquinolin-2(1H)-yl)propyl)benzamide] | 500 to 5000 nM |  | 500 to 5000 nM | < 1000 nM | < 1000 nM | ≥ 5000 nM |  | C* (an IC50 ratio of less than 3 fold between the IC50 in the HAP1 MTAP-intact cell line and the HAP1 MTAP-deleted cell line) | A (a Ki ratio greater than or equal to 10 fold between the Ki in the presence of SAM and the Ki in the presence of MTA) |
| O=C(NC[C@H](O)CN1CCc2cc(OCc3cnco3)ccc2C1)c1ccc(OC2CCN(Cc3ccccc3)CC2)cc1 [Compound 291, (S)-4-((1-benzylpiperidin-4-yl)oxy)-N-(2-hydroxy-3-(6-(oxazol-5-ylmethoxy)-3,4-dihydroisoquinolin-2(1H)-yl)propyl)benzamide] | 50 to 500 nM |  | 50 to 500 nM | 1000 to 10000 nM | 1000 to 10000 nM | 500 to 5000 nM |  | C* (an IC50 ratio of less than 3 fold between the IC50 in the HAP1 MTAP-intact cell line and the HAP1 MTAP-deleted cell line) |  |
| Cc1ncoc1COc1ccc2c(c1)CCN(C[C@@H](O)CNC(=O)c1cncc(NC3CCC3)c1)C2 [Compound 271, (S)-5-(cyclobutylamino)-N-(2-hydroxy-3-(6-((4-methyloxazol-5-yl)methoxy)-3N-dihydroisoquinolin-2(1H)-yl)propyl)nicotinamide] | 50 to 500 nM |  | 50 to 500 nM | < 1000 nM | < 1000 nM | 500 to 5000 nM |  | C* (an IC50 ratio of less than 3 fold between the IC50 in the HAP1 MTAP-intact cell line and the HAP1 MTAP-deleted cell line) | A (a Ki ratio greater than or equal to 10 fold between the Ki in the presence of SAM and the Ki in the presence of MTA) |
| CCN1CCN(c2cc(C(=O)NC[C@H](O)CN3CCc4cc(OCc5ocnc5C)ccc4C3)cc(NC3CCC3)n2)CC1 [Compound 410, 2-(cyclobutylamino)-6-(4-ethylpiperazin-1-yl)-N-[(2S)-2-hydroxy-3-{6-[(4-methyl-1,3-oxazol-5-yl)methoxy]-1,2,3,4-tetrahydroisoquinolin-2-yl}propyl]pyridine-4-carboxamide] | 50 to 500 nM |  | 50 to 500 nM | < 1000 nM | < 1000 nM | 500 to 5000 nM |  | B* (an IC50 ratio greater than or equal to 3 fold but lower than 10 fold between the IC50 in the HAP1 MTAP-intact cell line and the HAP1 MTAP-deleted cell line) | A (a Ki ratio greater than or equal to 10 fold between the Ki in the presence of SAM and the Ki in the presence of MTA) |
| Cc1ncoc1COc1ccc2c(c1C)CCN(C[C@@H](O)CNC(=O)c1cc(NC3CCC3)nc(N3CCN(C(=O)C(C)C)CC3)c1)C2 [Compound 459, 2-(cyclobutylamino)-N-[(2S)-2-hydroxy-3-{5-methyl-6-[(4-methyl-1,3-oxazol-5-yl)methoxy]-1,2,3,4-tetrahydroisoquinolin-2-yl}propyl]-6-[4-(2-methylpropanoyl)piperazin-1-yl]pyridine-4-carboxamide] | 50 to 500 nM | 500 to 5000 nM | 50 to 500 nM | 1000 to 10000 nM | < 1000 nM |  | A (a Ki ratio greater than or equal to 10 fold between the Ki in the presence of SAM and the Ki in the presence of MTA) | A* (an IC50 ratio greater than or equal to 10 fold between the IC50 in the HAP1 MTAP-intact cell line and the HAP1 MTAP-deleted cell line) |  |

The next lines start with results.

| IC50 (PRMT5 [1]) | IC50 (PRMT5 [2]) | IC50 (PRMT5 [3]) | IC50 (HAP1 MTAP-intact) | IC50 (HAP1 MTAP-deleted) | IC50 (PRMT5 [2]; read-out: No Co-factor IC50) | Structure (SMILES) | SAM/MTA Ratio (PRMT5 [3]; [4]) | MTAP Intact/Deleted Ratio (HAP1 MTAP-deleted) | SAM/MTA Ratio (PRMT5 [3]; [5]) |
| --- | --- | --- | --- | --- | --- | --- | --- | --- | --- |
| 50 to 500 nM | 500 to 5000 nM | 50 to 500 nM | ≥ 10000 nM | ≥ 10000 nM |  | CC(C)N1CCN(c2cc(C(=O)NC[C@H](O)CN3CCc4cc(OCc5cnco5)ccc4C3)cc(NC3CCC3)n2)CC1 [Compound 462, (S)-2-(cyclobutylamino)-N-(2-hydroxy-3-(6-(oxazol-5-ylmethoxy)-3,4-dihydroisoquinolin-2(1H)-yl)propyl)-6-(4-isopropylpiperazin-1-yl)isonicotinamide] | A (a Ki ratio greater than or equal to 10 fold between the Ki in the presence of SAM and the Ki in the presence of MTA) | C* (an IC50 ratio of less than 3 fold between the IC50 in the HAP1 MTAP-intact cell line and the HAP1 MTAP-deleted cell line) |  |
| 50 to 500 nM |  | 50 to 500 nM | 1000 to 10000 nM | 1000 to 10000 nM | 500 to 5000 nM | CCN1CCN(c2cc(C(=O)NC[C@H](O)CN3CCc4cc(OCc5cnco5)ccc4C3)cc(NC3CCC3)n2)CC1 [Compound 286] |  | B* (an IC50 ratio greater than or equal to 3 fold but lower than 10 fold between the IC50 in the HAP1 MTAP-intact cell line and the HAP1 MTAP-deleted cell line) | A (a Ki ratio greater than or equal to 10 fold between the Ki in the presence of SAM and the Ki in the presence of MTA) |
| 50 to 500 nM |  | 50 to 500 nM | 1000 to 10000 nM | < 1000 nM | 500 to 5000 nM | CC(=O)N1CC[C@H](Nc2cc(C(=O)NC[C@H](O)CN3CCc4cc(OCc5ocnc5C)ccc4C3)ncn2)C[C@H]1C (mixture of isomers) [Compound 626, 6-{[(2RS,4SR)-1-acetyl-2-methylpiperidin-4-yl]amino}-N-[(2S)-2-hydroxy-3-{6-[(4-methyl-1,3-oxazol-5-yl)methoxy]-1,2,3,4-tetrahydroisoquinolin-2-yl}propyl]pyrimidine-4-carboxamide] |  | B* (an IC50 ratio greater than or equal to 3 fold but lower than 10 fold between the IC50 in the HAP1 MTAP-intact cell line and the HAP1 MTAP-deleted cell line) | A (a Ki ratio greater than or equal to 10 fold between the Ki in the presence of SAM and the Ki in the presence of MTA) |
| 50 to 500 nM | 500 to 5000 nM | 50 to 500 nM | 1000 to 10000 nM | < 1000 nM |  | CC(=O)N1CCN(c2cc(C(=O)NC[C@H](O)CN3CCc4cc(OCc5ocnc5C)c(F)cc4C3)cc(NC3CCC3)n2)CC1 [Compound 615, 2-(4-acetylpiperazin-1-yl)-6-(cyclobutylamino)-N-[(2S)-3-[7-fluoro-6-[(4-methyloxazol-5-yl)methoxy]-3,4-dihydro-1H-isoquinolin-2-yl]-2-hydroxy-propyl]pyridine-4-carboxamide] | A (a Ki ratio greater than or equal to 10 fold between the Ki in the presence of SAM and the Ki in the presence of MTA) | A* (an IC50 ratio greater than or equal to 10 fold between the IC50 in the HAP1 MTAP-intact cell line and the HAP1 MTAP-deleted cell line) |  |
